Source: article PMC12320230, “BAY11-7082 Targets RNF25 to Reverse TRIP4 Ubiquitination-dependent NF-κB Activation and Apoptosis Resistance in Renal Cell Carcinoma” (International Journal of Biological Sciences, 2025)

Biological target: T1, RNF25 (Homo sapiens, UniProt Q96BH1)
T1 construct: His-RNF25 used in ubiquitination assay
T1 sequence (Q96BH1 1-459): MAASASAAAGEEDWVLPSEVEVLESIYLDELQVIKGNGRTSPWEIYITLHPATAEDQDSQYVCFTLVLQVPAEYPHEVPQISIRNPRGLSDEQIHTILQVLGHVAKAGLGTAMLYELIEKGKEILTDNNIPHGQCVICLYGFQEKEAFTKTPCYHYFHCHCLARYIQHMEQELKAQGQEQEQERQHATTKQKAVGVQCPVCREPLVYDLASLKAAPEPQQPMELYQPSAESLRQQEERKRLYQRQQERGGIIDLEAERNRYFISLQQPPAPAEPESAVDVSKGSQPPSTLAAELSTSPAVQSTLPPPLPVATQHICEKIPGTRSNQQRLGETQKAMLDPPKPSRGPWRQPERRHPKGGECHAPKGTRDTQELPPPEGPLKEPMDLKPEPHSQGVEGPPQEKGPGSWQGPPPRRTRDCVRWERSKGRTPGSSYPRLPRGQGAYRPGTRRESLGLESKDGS
Assay: isothermal titration calorimetry
Format: binding

Kd: 950 nM
Structure (SMILES): Cc1ccc(S(=O)(=O)/C=C/C#N)cc1 [BAY11-7082]
